According to patent US9096625B2, “BCL-2/BCL-XL inhibitors and therapeutic methods using the same” (THE REGENTS OF THE UNIVERSITY OF MICHIGAN, priority 2013, dated 2015):

Columns and labels:
[1] = target: T1, A1 (Homo sapiens, UniProt Q16548); details: versus Bcl-2, Bcl-xL, Bcl-w; cited from earlier work
T1 sequence (Q16548 1-175): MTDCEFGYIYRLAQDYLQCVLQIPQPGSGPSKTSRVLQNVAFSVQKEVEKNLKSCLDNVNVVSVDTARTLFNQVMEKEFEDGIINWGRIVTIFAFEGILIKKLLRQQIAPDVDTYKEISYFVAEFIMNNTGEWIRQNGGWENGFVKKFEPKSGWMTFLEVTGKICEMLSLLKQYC

[2] = target: T2, Mcl-1 (Homo sapiens, UniProt Q07820); details: versus Bcl-2, Bcl-xL, Bcl-w; cited from earlier work
Target sequence in this assay (Q07820 whole entry, species assumed): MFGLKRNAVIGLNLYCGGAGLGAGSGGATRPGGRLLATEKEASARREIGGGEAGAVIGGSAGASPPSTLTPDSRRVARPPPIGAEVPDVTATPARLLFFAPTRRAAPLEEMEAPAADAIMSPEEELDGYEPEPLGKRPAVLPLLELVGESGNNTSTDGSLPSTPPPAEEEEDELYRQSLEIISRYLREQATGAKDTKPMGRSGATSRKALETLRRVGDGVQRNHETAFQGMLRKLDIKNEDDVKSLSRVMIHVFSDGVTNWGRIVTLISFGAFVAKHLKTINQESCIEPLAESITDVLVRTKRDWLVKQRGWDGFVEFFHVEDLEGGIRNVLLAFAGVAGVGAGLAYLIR

[3] = target: T2, Mcl-1; assay: Fluorescence polarization (FP)-based binding assay, Mcl-1; details: FP saturation, 2 nM probe, increasing protein concentrations; read-out: Kd of fluorescent probe to Mcl-1
Target sequence in this assay (Q07820 whole entry): as the sequence (Q07820 whole entry, species assumed) above

## CC1(C)CCC(c2ccc(Cl)cc2)=C(CN2CCN(c3ccc(C(=O)NS(=O)(=O)c4ccc(N[C@H](CCN5CCOCC5)CSc5ccccc5)c(S(=O)(=O)C(F)(F)F)c4)cc3)CC2)C1 [ABT-263]
[1]
  specificity over A1: high specificity
[2]
  specificity over Mcl-1: high specificity

## CN(C)CC[C@H](CSc1ccccc1)Nc1ccc(S(=O)(=O)NC(=O)c2ccc(N3CCN(Cc4ccccc4-c4ccc(Cl)cc4)CC3)cc2)cc1[N+](=O)[O-] [ABT-737]
[1]
  specificity over A1: high specificity
[2]
  specificity over Mcl-1: high specificity

## Flu-BID: homemade fluorescein labeled BID (79-99) peptide, fluorescent probe for Mcl-1 FP assay
[3]
  Kd: 6.8 ± 1.5 nM
